Molecular target: T1, FLT3 (Homo sapiens, UniProt P36888)
T1 construct: expressed in transfected cells; host or cells: HEK293T
T1 sequence (P36888 27-993): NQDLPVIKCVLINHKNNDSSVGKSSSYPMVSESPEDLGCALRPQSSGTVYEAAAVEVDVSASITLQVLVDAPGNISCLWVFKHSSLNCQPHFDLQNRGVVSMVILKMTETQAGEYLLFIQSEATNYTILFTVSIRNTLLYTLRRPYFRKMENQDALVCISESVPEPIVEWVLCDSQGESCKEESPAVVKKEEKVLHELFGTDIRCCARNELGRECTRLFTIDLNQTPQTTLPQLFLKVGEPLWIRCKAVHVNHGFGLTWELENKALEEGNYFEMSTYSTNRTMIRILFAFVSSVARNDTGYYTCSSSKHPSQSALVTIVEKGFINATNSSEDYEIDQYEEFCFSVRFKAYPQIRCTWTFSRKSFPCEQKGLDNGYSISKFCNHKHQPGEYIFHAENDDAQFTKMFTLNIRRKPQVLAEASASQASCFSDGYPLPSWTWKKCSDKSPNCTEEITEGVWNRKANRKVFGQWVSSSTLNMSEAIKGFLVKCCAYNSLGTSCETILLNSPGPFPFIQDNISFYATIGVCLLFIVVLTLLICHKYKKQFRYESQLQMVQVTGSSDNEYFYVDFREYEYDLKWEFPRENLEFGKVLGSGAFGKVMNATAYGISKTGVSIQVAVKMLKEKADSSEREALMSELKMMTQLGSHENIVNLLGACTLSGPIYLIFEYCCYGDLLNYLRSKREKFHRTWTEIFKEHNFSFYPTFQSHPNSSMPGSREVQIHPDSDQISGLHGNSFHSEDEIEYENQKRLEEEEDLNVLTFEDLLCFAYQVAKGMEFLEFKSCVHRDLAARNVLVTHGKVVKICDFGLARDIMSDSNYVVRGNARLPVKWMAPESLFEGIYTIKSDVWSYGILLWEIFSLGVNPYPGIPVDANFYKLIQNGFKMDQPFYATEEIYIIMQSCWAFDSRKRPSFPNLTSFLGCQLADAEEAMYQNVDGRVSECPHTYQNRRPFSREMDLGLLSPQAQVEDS
Assay: HTRF binding assay of FL to FLT3 (TR-FRET, SNAP-FLT3 transfected HEK293T cells)
Settings: HEK293T cells transfected with SNAP-FLT3, labelled with SNAP-Lumi4-Tb; compounds 1 h at room temperature, then FL-d2 (0.5 nM), read after 20 h; 12 dilutions in triplicates, performed twice; read-out: Inhibition of FLT3 binding IC50, binding
Procedure: The binding of FL to FLT3 was measured by a Homologous Time-Resolved Fluorescence (HTRF) assay (Degorce et al., Current Chemical Genomics, 2009, 3, 22-32), which involves resonance energy transfer between a donor, Lumi4-Tb-donor-derivatized benzylguanine substrate (SNAP-Lumi4-Tb, excitation: 337 nm, emission: 630 nm, Cisbio, France), transfected in HEK cells, and an acceptor, red fluorescent FL (FL-d2, excitation: 620 nm, emission: 660 nm, Cisbio, France). When FL-d2 binds to the SNAP-Lumi4-Tb-tagged FLT3 receptor, the proximity of both fluorophores allows the time-resolved Förster resonance energy transfer (TR-FRET) signal to occur and the binding is measured as the ratio between the fluorescent emissions at 660 to 620 nm.
The detailed method is described in Rivat et al. (Nature Communications, 2018, 9 :1042). Briefly, HEK293T cells were transfected with a pCDNA3.1 SNAP-FLT3 plasmid by using Lipofectamine (Invitrogen), and were than labelled with SNAP-Lumi4-Tb. Plates containing attached transfected HEK293T cells were incubated with compounds of formula (I) for 1 h at room temperature. A series of 12 dilutions in triplicates was used for each compound and the experiment was performed twice. Then FL-d2 (0.5 nM) was added and the TR-FRET signal was read after 20 h incubation at room temperature with a HTRF-compatible reader (Envision, Perkin Elmer) allowing a donor excitation at 337 nm and a signal collection both at 615 nm and 665 nm (20 flashes, delay 50 µs, integration time 400 µs). Then HTRF ratio, obtained by dividing the acceptor signal (665 nm) by the donor signal (615 nm), was calculated at each concentration of test compounds. Non-specific binding was measured in the presence 50 µM of BDT001 (Rivat et al., ibid.). Concentration giving 50 % inhibition (IC50) were calculated by non-linear regression analysis for a one-site model, with variable slope (Prism®, Graphpad software, USA).

| SMILES | IC50 [nM] |
| --- | --- |
| CN1CCC(c2ccc(C(=O)Nc3ccc(F)c4cccnc34)cc2)CC1 [(1), N-(5-fluoroquinolin-8-yl)-4-(1-methylpiperidin-4-yl)benzamide] | 1200 |
| CN1CCC(c2ccc(C(=O)Nc3ccc(F)c4cnccc34)cc2)CC1 [(2), N-(8-fluoroisoquinolin-5-yl)-4-(1-methylpiperidin-4-yl)benzamide] | 1400 |
| CN1CCC(c2ccc(C(=O)Nc3ccc(F)c4ccncc34)cc2)CC1 [(3), N-(5-fluoroisoquinolin-8-yl)-4-(1-methylpiperidin-4-yl)benzamide] | 1800 |
| CN1CCC(c2ccc(C(=O)Nc3ccc(F)c4ncccc34)cc2)CC1 [(4), N-(8-fluoroquinolin-5-yl)-4-(1-methylpiperidin-4-yl)benzamide] | 5300 |
| CN1CCC(c2ccc(C(=O)Nc3ccc(F)c4nccnc34)cc2)CC1 [(5), N-(8-fluoroquinoxalin-5-yl)-4-(1-methylpiperidin-4-yl)benzamide] | 400 |
| CN1CCC(c2ccc(C(=O)Nc3cccc4ncccc34)cc2)CC1 [(6), 4-(1-methylpiperidin-4-yl)-N-(quinolin-5-yl)benzamide] | 1300 |
| CN1CCC(c2ccc(C(=O)Nc3cccc4cnccc34)cc2)CC1 [(7), N-(isoquinolin-5-yl)-4-(l-methylpiperidin-4-yl)benzamide] | 800 |
| CN1CCC(c2ccc(C(=O)Nc3cccc4ccncc34)cc2)CC1 [(8), N-(isoquinolin-8-yl)-4-(1-methylpiperidin-4-yl)benzamide] | 800 |
| CN1CCC(c2ccc(C(=O)Nc3cccc4cccnc34)cc2)CC1 [(9), 4-(1-methylpiperidin-4-yl)-N-(quinolin-8-yl)benzamide] | 1500 |
| CN(C)CCOc1ccc(C(=O)Nc2cccc3ccncc23)cc1 [(10), 4-[2-(dimethylamino)ethoxy]-N-(isoquinolin-8-yl)benzamide] | 800 |
| CN(C)CCOc1ccc(C(=O)Nc2cccc3cccnc23)cc1 [(11), 4-[2-(dimethylamino)ethoxy]-N-(quinolin-8-yl)benzamide] | 2900 |
| CN1CCC(c2ccc(C(=O)Nc3cccc4cccnc34)c(F)c2)CC1 [(12), 2-fluoro-4-(1-methylpiperidin-4-yl)-N-(quinolin-8-yl)benzamide] | 1800 |
| CN1CCC(c2ccc(C(=O)Nc3cccc4cnccc34)cc2F)CC1 [(13), 3-fluoro-N-(isoquinolin-5-yl)-4-(1-methylpiperidin-4-yl)benzamide] | 1400 |
| CN(C)CCOc1ccc(C(=O)Nc2cccc3cnccc23)cc1 [(14), 4-(2-(dimethylamino)ethoxy)-N-(isoquinolin-5-yl)benzamide] | 900 |
| CN(C)CCOc1ccc(C(=O)Nc2cccc3ncccc23)cc1 [(15), 4-(2-(dimethylamino)ethoxy)-N-(quinolin-5-yl)benzamide] | 1700 |
| COc1cc(C2CCN(C)CC2)ccc1C(=O)Nc1cccc2cccnc12 [(16), 2-methoxy-4-(1-methylpiperidin-4-yl)-N-(quinolin-8-yl)benzamide] | 600 |
| COc1cc(C(=O)Nc2cccc3cnccc23)ccc1C1CCN(C)CC1 [(17), N-(isoquinolin-5-yl)-3-methoxy-4-(1-methylpiperidin-4-yl)benzamide] | 900 |
| CN1CCC(c2ccc(C(=O)Nc3cccc4cccnc34)c(C(F)(F)F)c2)CC1 [(18), 4-(1-methylpiperidin-4-yl)-N-(quinolin-8-yl)-2-(trifluoromethyl)benzamide] | 1700 |
| CN(C)CCOc1ccc(C(=O)Nc2cccc3cnncc23)cc1 [(19), 4-[2-(dimethylamino)ethoxy]-N-(phthalazin-5-yl)benzamide] | 25000 |
| CN(C)CCOc1ccc(C(=O)Nc2ccc(F)c3ncccc23)cc1 [(20), 4-(2-(dimethylamino)ethoxy)-N-(8-fluoroquinolin-5-yl)benzamide] | 6200 |
| CN1CCC(c2ccc(C(=O)Nc3cccc4cnccc34)cc2C#N)CC1 [(21), 3-cyano-N-(isoquinolin-5-yl)-4-(1-methylpiperidin-4-yl)benzamide] | 2000 |
